Laboratory results taken from US10487116B2, “Immunotherapy against several tumors, such as lung cancer, including NSCLC” (IMMATICS BIOTECHNOLOGIES GMBH, priority 2013, dated 2019).

How the values were obtained:
[1] = system: lung cancer cells NCI-H460; conditions: Wang et al., 2009a; cited from earlier work
[2] = system: colon carcinoma cells HCT-8; conditions: Wang et al., 2009a; cited from earlier work
[3] = system: colon carcinoma cells HCT-15; conditions: Wang et al., 2009a; cited from earlier work
[4] = target: T1, HLA-DR2 (Homo sapiens, UniProt P01903+P01911); experiment: ProImmune REVEAL MHC-peptide binding assay; conditions: compared to the positive control peptide, time 0
T1 construct: purchased ProImmune
T1 sequence (P01903 26-254): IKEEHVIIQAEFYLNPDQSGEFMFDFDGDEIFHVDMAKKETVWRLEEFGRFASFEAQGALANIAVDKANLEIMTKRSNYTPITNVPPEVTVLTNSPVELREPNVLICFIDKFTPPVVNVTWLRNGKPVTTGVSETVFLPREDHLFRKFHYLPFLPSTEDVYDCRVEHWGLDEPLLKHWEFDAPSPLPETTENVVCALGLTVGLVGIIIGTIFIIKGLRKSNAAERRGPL
T1 sequence (P01911 30-227 limits assumed): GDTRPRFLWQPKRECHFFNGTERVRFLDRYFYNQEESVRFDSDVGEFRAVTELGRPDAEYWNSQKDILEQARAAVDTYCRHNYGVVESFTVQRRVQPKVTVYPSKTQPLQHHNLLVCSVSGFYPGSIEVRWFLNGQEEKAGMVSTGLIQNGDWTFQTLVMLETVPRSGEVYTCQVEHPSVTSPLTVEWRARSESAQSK
Procedure: (§1) The ProImmune REVEAL® MHC-peptide binding assay determines the ability of each candidate peptide to bind to the selected HLA class II haplotype and stabilize the HLA-peptide complex. Thereby the candidate peptides are assembled in vitro with a particular HLA class II protein. The level of peptide incorporation into HLA molecules is measured by presence or absence of the native conformation of the assembled HLA-peptide complex at time 0 after completed refolding procedure (so called on-rate).
(§2) The binding capacity of candidate peptide to a particular HLA molecule is compared to the one with known very strong binding properties (positive control) resulting in the corresponding REVEAL® […] binding score. The positive control peptide is selected and provided by ProImmune based on their experience individually for each HLA haplotype.

[5] = system: HLA-DR1; experiment: ProImmune REVEAL MHC-peptide binding assay; design: species or system human; conditions: compared to the positive control peptide, time 0
Procedure: as §1, §2

[6] = system: HLA-DR4; experiment: ProImmune REVEAL MHC-peptide binding assay; design: species or system human; conditions: compared to the positive control peptide, time 0
Procedure: as §1, §2

[7] = system: HLA-DR5; experiment: ProImmune REVEAL MHC-peptide binding assay; design: species or system human; conditions: compared to the positive control peptide, time 0
Procedure: as §1, §2

[8] = system: HLA-DR7; experiment: ProImmune REVEAL MHC-peptide binding assay; design: species or system human; conditions: compared to the positive control peptide, time 0
Procedure: as §1, §2

[9] = system: CD4 T-cells; experiment: Intracellular cytokine staining (ICS) of CD4 T-cells in blood samples of vaccinated patients; format: in vivo, human; conditions: vaccination with IMA950 peptides, 16 patients
Procedure: A conclusion on the immugenicity of a peptide based on its binding capacity to a HLA molecule can be made by comparing the binding score of this peptide to the one with known immunogenicity. Therefore, five well investigated peptides with determined immunogenicity were selected for this comparison. The immunogenicity of these peptides was determined ex vivo in blood samples of vaccinated patients using intracellular cytokine staining (ICS) CD4 T-cells.
In principle, ICS assays analyze the quality of specific T cells in terms of effector functions. Therefore, the peripheral mononuclear cells (PBMCs) were cultivated in vitro and subsequently restimulated by the peptide of interest, a reference peptide and a negative control (here MOCK).
Following the restimulated cells were stained for FN-gamma, TNF-alpha, IL-2 and IL-10 production, as well as expression of the co-stimulatory molecule CD154. The counting of affected cells was performed on a flow cytometer (FIG. 7).

| Relative Binding Score HLA-DR2 [4] | Relative Binding Score HLA-DR1 [5] | Relative Binding Score HLA-DR4 [6] | Relative Binding Score HLA-DR5 [7] | Relative Binding Score HLA-DR7 [8] | Compound | cytotoxicity [1] | cytotoxicity [2] | cytotoxicity [3] | immune response [9] [%] |
| --- | --- | --- | --- | --- | --- | --- | --- | --- | --- |
|  |  |  |  |  | CCCCCCCCCCCCCCOc1ccc(C(=O)O)o1 [TOFA, 5-tetradecyloxy-2-furoic acid] | cytotoxic | cytotoxic | cytotoxic |  |
| 0.05 | 40.06 | 6.12 | 103.9 | 0.27 | BIR-002: class II peptide with known immunogenicity, IMA950 peptide (TLGEFLKLDRERAKN) [reference compound] |  |  |  | 100 |
| 0.28 | 0.87 | 5.89 | 0.12 | 3.69 | MET-005: class II peptide with known immunogenicity, IMA950 peptide (TFSYVDPVITSISPKYG) [reference compound] |  |  |  | 100 |
